Reference: the NIST ThermoML archive (doi:10.1016/j.fluid.2005.03.023)
Numbers after ± are expanded uncertainties.

What was measured:
[1] = Crystal; DTA
[2] = Molar enthalpy of transition or fusion; settings: Crystal; DSC

| Normal melting temperature [1] | Molar enthalpy of transition or fusion [2] | SMILES |
| --- | --- | --- |
| 113.8 ± 0.5 °C | 5.12 ± 0.153 kcal/mol | CC(=O)Nc1ccccc1 [N-phenylethanamide] |
| 105.1 ± 0.5 °C | 4.67 ± 0.141 kcal/mol | CC(=O)c1ccc(N)cc1 [4-acetylaniline] |
| 108.2 ± 0.5 °C | 4.07 ± 0.127 kcal/mol | CC(=O)c1ccc(O)cc1 [4'-hydroxyacetophenone] |
| 93.6 ± 0.5 °C | 5.58 ± 0.165 kcal/mol | CC(=O)c1cccc(O)c1 [1-(3-hydroxyphenyl)ethanone] |
